# Results from ChEMBL document CHEMBL5120745, “LC-MS Identification, Isolation, and Structural Elucidation of Anti-HIV Tigliane Diterpenoids from Wikstroemia lamatsoensis” (J Nat Prod, 2021).
# Tests used:
# [1] = Cytotoxicity against human MT4 cells assessed as reduction in cell viability by CellTiter-Glo luminescence analysis; type: toxicity, cell-based
# [2] = tested on: Human immunodeficiency virus 1; experiment: Antiviral activity against HIV-1 NL4-3 infected in human MT4 cells assessed as inhibition of viral replication by Nano-Glo luciferase assay; type: functional, organism-based; settings: Human immunodeficiency virus 1, NL4-3, MT4
# [3] = Selectivity index, ratio of CC50 for human MT4 cells to IC50 for antiviral activity against HIV-1 NL4-3 infected in human MT4 cells; type: toxicity, cell-based; settings: read-out: Ratio CC50/IC50
SMILES,CC50 [1],IC50 [2],selectivity ratio [3]
CCCCCCCC(=O)O[C@@]12[C@H](OC(=O)c3ccccc3)[C@@H](C)[C@@]3(O)[C@@H](C(=O)C(CO)=C[C@]4(O)C(=O)C(C)=C[C@@H]34)[C@@H]1C2(C)C,> 41 nM,–,–
CCCCCCCC(=O)O[C@@]12[C@H](OC(=O)c3ccccc3)[C@@H](C)[C@@]3(O)[C@H]([C@@H]1C2(C)C)[C@@H](O)C(CO)=C[C@]1(O)C(=O)C(C)=C[C@@H]31,> 41 nM,> 41 nM,–
CCCCCCCC(=O)O[C@@]12[C@H](OC(=O)c3ccccc3)[C@@H](C)[C@@]3(O)[C@@H](C=C(CO)C[C@]4(O)C(=O)C(C)=C[C@@H]34)[C@@H]1C2(C)C,> 41 nM,0.18 nM,–
CCCCCCCC(=O)O[C@@]12C[C@@H](C)[C@@]3(O)[C@@H](C(=O)C(CO)=C[C@]4(O)C(=O)C(C)=C[C@@H]34)[C@@H]1C2(C)C,> 41 nM,> 41 nM,–
C=C(C)[C@]12C[C@@H](COC(=O)c3ccccc3)[C@@]34OC5(O[C@@H]1[C@@H]3[C@@H]1O[C@]1(CO)[C@@H](O)[C@@]1(O)[C@H]4[C@H]([C@H](C)[C@@H]1OC(=O)c1ccccc1)[C@H](C)CCCCCC[C@H]5O)O2,> 5 nM,0.07 nM,–
CCCCCCCC(=O)O[C@@]12[C@H](OC(=O)c3ccccc3)[C@@H](C)[C@]3(O)[C@@H]4C=C(C)C(=O)[C@@]4(O)[C@H](O)C(CO)=C[C@H]3[C@@H]1C2(C)C,> 41 nM,–,–
CCCCCCCC(=O)O[C@@]12[C@H](OC(=O)c3ccccc3)[C@@H](C)[C@@]3(O)C(=C[C@](O)(CO)C[C@]4(O)C(=O)C(C)=C[C@@H]34)[C@@H]1C2(C)C,> 41 nM,> 41 nM,–
CCCCCCCC(=O)O[C@@]12C[C@@H](C)[C@@]3(O)[C@H]([C@@H]1C2(C)C)[C@@H](OO)C(CO)=C[C@]1(O)C(=O)C(C)=C[C@@H]31,> 41 nM,> 41 nM,–
CCCCCCCC(=O)O[C@@]12[C@H](OC(=O)c3ccccc3)[C@@H](C)[C@@]3(O)[C@H]([C@@H]1C2(C)C)[C@@H](OO)C(CO)=C[C@]1(O)C(=O)C(C)=C[C@@H]31,–,–,< 5
